According to US12435026B2, “Solabegron zwitterion and uses thereof” (B3AR THERAPEUTICS, INC., priority 2015, dated 2025):

How the values were obtained:
[1] = test system: women with moderate to severe OAB; details: Ohlstein et al., Eur. Urol. 2012; cited from earlier work
[2] = Relative stability of solabegron zwitterion Forms I and II via slurry conditioning in IPA/H2O; assay type: physicochemical; details: for relative stability of crystal forms: slurry conditioning in IPA/H2O with different ratio (FIG. 10)
Protocol: The relative stability of solabegron zwitterion Forms I and II was evaluated via slurry conditioning of either solabegron zwitterion Form I or a mixture of solabegron zwitterion Forms I and II in IPA/H2O with different ratio, for a) confirmation of relative stability of the two solabegron zwitterion forms, and b) rational process design and control. The table in FIG. 10 lists the testing conditions and results.

[3] = Solubility among forms of solabegron; assay type: physicochemical
Excerpt: After extensive effort, applicants have newly discovered two crystalline forms of solabegron zwitterion. One form, form I, is an anhydrous crystalline form and is characterized by an x-ray powder diffraction pattern having peaks expressed in degrees 2θ (±2) at 6.2, 12.5; 18.8; 20.6; and 25.2. A second form, form II is a hydrate of isopropanol solvate and is characterized by an x-ray powder diffraction pattern having peaks expressed in degrees 2θ (±2) at 17.6, 18.7, 19.6, 20.1, 20.5, 23.7, and 25.8. (See EXAMPLE 3 and FIGS. 7, 12 and 14). […] After isolation the solabegron crystals can be dissolved and then crystallized to the solabegron HCL salt form, which is currently being investigated clinically. Of equal importance, the pharmaceutical compositions of solabegron zwitterion disclosed herein could be used as the active ingredient clinically, replacing the need for the HCl salt form of solabegron.

Structure (SMILES): O=C(O)c1cccc(-c2cccc(NCCNC[C@H](O)c3cccc(Cl)c3)c2)c1 [solabegron, 3′-[(2-{[(2R)-2-(3-chlorophenyl)-2-hydroxyethyl]amino}ethyl)amino]biphenyl-3-carboxylic acid]
- safety and tolerability; adverse events as compared to placebo [1]: safe, well tolerated, and does not demonstrate significant differences in adverse events as compared to placebo
- symptoms of OAB [1]: significantly reduced the symptoms of OAB

Structure (SMILES): O=C(O)c1cccc(-c2cccc(NCCNC[C@H](O)c3cccc(Cl)c3)c2)c1 [solabegron zwitterion Form I]
- crystal form resulting from slurry conditioning ([2]; starting with Form I alone or a mixture of Forms I and II, IPA/H2O with different ratio (FIG. 10)): Solabegron zwitterion Form II resulted from all tested conditions

Structure (SMILES): O=C(O)c1cccc(-c2cccc(NCCNC[C@H](O)c3cccc(Cl)c3)c2)c1 [solabegron zwitterion Form II]
- relative stability of crystal forms [2]: more stable than solabegron zwitterion Form I
- relative stability of crystal forms ([2]; listed as form II solabegron zwitterion): more stable than the form I solabegron zwitterion

Structure (SMILES): O=C(O)c1cccc(-c2cccc(NCCNC[C@H](O)c3cccc(Cl)c3)c2)c1 [Solabegron zwitterion]
- solubility relative to other forms of solabegron [3]: least soluble form of solabegron
